A word on the IC50: it is the concentration needed to halve the response being measured. Broadly, the inhibition is the share of the control response that was lost under treatment.

IC50 and inhibition data for three compounds are collected here from ChEMBL document CHEMBL1144582, “Identification of arylsulfonamides as Aquaporin 4 inhibitors” (Bioorg Med Chem Lett, 2007).

Assay [1] can be described thus: Inhibition of human AQP4b-mediated water transport in Xenopus oocytes. Particulars: Oocyte.
Assay [2] deals with Oocyte. Kind of assay: Inhibition of human AQP4b-mediated water transport in Xenopus oocytes at 20 uM. In kind it is cell-based.

`CC(=O)Nc1nnc(S(N)(=O)=O)s1` [ACETAZOLAMIDE] came in with an IC50 in assay [1] of 900 nM. In assay [2], `CCOc1ccc2nc(S(N)(=O)=O)sc2c1` returned an inhibition of 68%.

On to `CC(=O)Nc1ccc(S(N)(=O)=O)cc1`, for which, in assay [2], the inhibition was found to be 23%.
